A word on the NOAEL: it is the highest tested level that showed no adverse finding.

The values below come from patent US8871900B2, “Fibroblast growth factor (FGF) analogs and uses thereof” (University of Rochester, priority 2008, dated 2014).

Peptide text beside a SMILES is read from it.

The subject of data set [1] is FGFR on AsPC-1 pancreatic cancer epithelial cells. The data set can be described thus: Cell surface binding of biotin-FGF-P, imaging flow cytometry (Amnis Imagestream). As for the experimental part:
Three preliminary experiments were carried out using FGF-P in vitro to confirm its activity. First, the biotin conjugated FGF-P was used as a tool to examine for cell surface binding. AsPC-1 pancreatic cancer epithelial cells are known to have high levels of FGFR and were used for this study. ASPC1 cells were incubated with 1 μg/ml of biotin-FGF-P and then labeled with streptavidin-FITC. The cells were then analyzed using an imaging flow cytometer (Amnis Imagestream). This device can image each cell as it passes through the laser, it can then sort cells according to both staining and morphological characteristics.
These clusters can be counted thus allowing for measurement of relative binding coefficients. To test the feasibility of binding coefficient measurement, competition experiments were performed. Free FGF-P (30 ug/ml) was added to cells for 20 min and then the biotin-FGF-P (1 μg/mL) was added. One hour later, the streptavidin-FITC was added and analyzed by flow cytometry. […] In a third test, a bioassay was performed. […]
Three preliminary experiments were carried out using FGF-P in vitro to confirm its activity. […] The cells were then analyzed using an imaging flow cytometer (Amnis Imagestream). […] These clusters were counted, allowing for measurement of relative binding coefficients. […] One hour later, streptavidin-FITC was added and analyzed by flow cytometry. […]
(In flow cytometry, cells or beads pass a laser one at a time.)

The nature of data set [2]: Plasma endotoxin after sub-TBI (tachypleus amebocyte lysate kit). Format: in vivo, mouse (Balb/c, C57BL/6). Conditions: Balb/c, 10.5 Gy sub-TBI, 3.5 days post-IR; FGF-P treated (vehicle 3.32, normal 0.45). As for the experimental part:
Some studies have employed bacterial culture of liver samples. Bacterial translocation occurs due to mucosal barrier changes (1) at the level of the basement membrane and (2) bowel mucous volume and composition. The most reliable and most clinically applicable method to measure bacterial translocation is the endotoxin assay. The level of plasma endotoxin 3.5 days post-IR was measured with a commercialized kit that utilized tachypleus amebocyte lysate to sensitively quantitate endotoxin at extremely low levels (<0.01 EU/ml); and 4) body weight (BW): poor nutrition and water absorption will result in reduced body weight. The rate and severity of weight loss, as well as the pace of body weight recovery, will be measured.
2) A standard scoring scale was used to evaluate stool formation (diarrhea). The bowel was extracted from the abdomen and visually inspected. Formed stool was easily distinguished from semi-solid and liquid stool as it passed from the ascending to descending colon. FIGS. 7B and 7C show the irradiated bowel in controls compared with FGF-P-treated Balb/c mice. The FGF-P was given at a dose of 2 mg/kg im for three daily doses beginning 15 min after irradiation. Animals were sacrificed 3.5 days after 10.5 Gy sub-TBI.

Data set [3] can be described thus: Toxicity of FGF-P (LD50/14 experiments). The data set is classed as in vivo, mouse (Balb/c). How it is done: Standard LD50/14 experiments have been performed. Up to 400 mg/kg of FGF-P was injected into Balb/c mice. No obvious signs of illness were observed. […] Thus, even the maximum NOAEL (no observed adverse effect level) could not be found. […] This observation is not surprising since similar observations have been made previously with human FGF-2 in mice (9-14) Likewise, it has been shown that in various disease states the level of FGF in humans is commonly 100 times the normal baseline.
A useful mitigator can be effective even given 8-24 hours IR exposure because of the time required for distribution. Therefore, FGF-P given at 8 hour after 7.1 Gy IR was tested.

Data set [4] has as its system BM cells. Put plainly: BM colony formation in MethoCult 3 D culture. The data set is classed as cell-based, mouse (Balb/c). The text has this:
Survival of ARS depends on rapid reconstitution of hematopoiesis after IR-induced myelosuppression. […] However, the timing and mechanism of effect on BM stem cells is unknown. Also unclear are the number of FGFRs on hematopoietic stem cells (HSCs) and their role in reconstitution after IR. […] To characterize the effects of FGF-P on BM, the study approach was to obtain fresh BM (including both HSCs and MSCs) from Balb/c mice, and culture it under varying conditions (3 D culture or 2 D round-bottom well) in triplicate for 1-3 weeks. The BM cells were stimulated with FGF-P at different doses (as test) or with EPO, TPO, GM-CSF or native FGF2 (as a positive control). The cultures were examined using several methods including colony count, photography, CyQUANT® assay and ^3H-TdR incorporation.

Data set [5] relates to BM cells. Put plainly: 3H-TdR incorporation of normal and irradiated (0.5 Gy) BM cells. Format: cell-based, mouse. How it is done: To determine if BM cells damaged by IR still responded to FGF-P, cells were plated in 96 round-bottom wells with serum-free ultraDoma-PF media and equally divided into two parts; one was not irradiated as control, and the other was irradiated with 0.5 Gy. They were then treated with equal amount of test agents within 1 hour post-IR. The following day, 0.2 uCi/well of ^3H-TdR was added and they were further cultured for 4 days before harvesting with a 96 well automatic harvester. […] There was no response to EPO.

Another data set relates to Cdc42, Rac1, Mapk10, Cfl. The data set can be described thus: Gene expression in irradiated BM cells (Luminex multiplex array). The data set is classed as cell-based, mouse. Conditions: treatment 20 min after 5 Gy IR, 6 hours, P<0.05.
The subject of data set [6] is GI Na transport from mucosa to serosa. Put plainly: Electrolyte transport assay with 22Na flux (Ussing chamber). The arrangement: species or system mouse. Conditions: after IR. How it is done:
FGF-P improves GI function: The absorption of Na coupling with nutrition and blocking of pathogen invasion are the basic function of GI. […] To pin down the mechanism in cell/tissue level, the electrolyte transport assay with ^22Na flux was carried with Ussing chamber. […] Similarly, a “Dilution Potential” experiment was carried out and Goldman-Hodgkin-Katz (GHK) Voltage Equation used to determine relative paracellular permeability.

With `CC(C)C[C@H](NC(=O)[C@H](C)NC(=O)[C@@H](NC(=O)[C@H](Cc1ccc(O)cc1)NC(=O)[C@H](Cc1c[nH]c2ccccc12)NC(=O)[C@H](CO)NC(=O)[C@H](CO)NC(=O)[C@H](Cc1ccc(O)cc1)NC(=O)[C@H](CCCCN)NC(=O)[C@H](CCCNC(=N)N)NC(=O)[C@H](CO)NC(=O)[C@H](CCCNC(=N)N)NC(=O)[C@H](Cc1ccc(O)cc1)NC(=O)[C@@H](N)CS)C(C)C)C(=O)N[C@@H](CCCCN)C(=O)N[C@@H](CCCNC(=N)N)C(=O)N[C@@H](CS)C(=O)O` [FGF-P, CYRSRKYSSWYVALKRC] (H-CYRSRKYSSWYVALKRC-OH; N-terminus and C-terminus assumed), the cell surface binding result in data set [1] (AsPC-1 cells, 1 μg/ml biotin-FGF-P, streptavidin-FITC) was “bound to the cell surface and causes the aggregation of FGFR”. Besides, the “competition with biotin-FGF-P for cell surface binding” value in data set [1] (free FGF-P 30 ug/ml for 20 min, then biotin-FGF-P 1 μg/mL) is reported as “competed with biotin-FGF-P for cell surface binding”. Moreover, in data set [2], the “plasma endotoxin level (mean)” value worked out at 2.12 EU/ml. Also, the body weight entry in data set [3] (Balb/c mice, up to 400 mg/kg) was “body weight did not decrease”. In data set [3] (mice), the “dose tolerated well without any signs of sickness” value is “up to 4 gram/kg”. The no-observed-adverse-effect level (NOAEL) at 14 days in data set [3] (mouse, in vivo, Balb/c mice, LD50/14 experiments, read-out: injected dose with no obvious signs of illness (maximum NOAEL could not be found)) is no more than 400 mg/kg. Besides, in the data set on BM cells [4], the “colony formation of BM cells” value is reported as “enhanced colony formation of BM cells in a dose dependent manner”. Besides, the “response of irradiated BM cells” value in the data set with BM cells [5] (0.5 Gy, treated within 1 hour post-IR, 3H-TdR) is on record as “in the same fashion as normal BM cells”. In the data set on BM cells [5] (3H-TdR incorporation, serum-free media), the order of responsiveness entry is “FGF-P (250-500 ng/ml)>native FGF2 (50 ng/ml), GM-CSF and TPO (100 ng/ml)”. In addition, the “dose dependence of stimulatory effect” value in the data set with BM cells [5] (normal and 0.5 Gy irradiated BM cells) is listed as “dose-dependent”. In the data set with Cdc42, Rac1, Mapk10, Cfl, the “expression of Cdc42” value is “reversed the IR-suppressed expression”, the “expression of Cfl (cofilin 1)” value is “suppressed towards normal”, the “expression of Mapk10” value is recorded as “suppressed towards normal” and the “expression of Rac1” value is on record as “reversed the IR-suppressed expression”. In data set [6], the “Na transport from mucosa to serosa” value is “reversed”.
